PubChem BioAssay (NCI)
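48-hour exposure; five concentrations; linearly interpolated endpoints. TGI denotes the concentration required for complete inhibition of growth.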

What was measured:
Assay in all cases: NCI-60 cell line screen, 48 h
786-0 renal = test system: 786-0 renal
A498 renal = test system: A498 renal
A549 NSCLC = test system: A549 NSCLC
ACHN renal = test system: ACHN renal
CAKI-1 renal = test system: CAKI-1 renal
CCRF-CEM leukemia = test system: CCRF-CEM leukemia
COLO 205 colon = test system: COLO 205 colon
DLD-1 colon = test system: DLD-1 colon
DMS 114 small cell lung = test system: DMS 114 small cell lung
DMS 273 small cell lung = test system: DMS 273 small cell lung
EKVX NSCLC = test system: EKVX NSCLC
HCC-2998 colon = test system: HCC-2998 colon
HCT-116 colon = test system: HCT-116 colon
HCT-15 colon = test system: HCT-15 colon
HL-60(TB) leukemia = test system: HL-60(TB) leukemia
HOP-18 NSCLC = test system: HOP-18 NSCLC
HOP-62 NSCLC = test system: HOP-62 NSCLC
HOP-92 NSCLC = test system: HOP-92 NSCLC
HT29 colon = test system: HT29 colon
IGROV1 ovarian = test system: IGROV1 ovarian
K-562 leukemia = test system: K-562 leukemia
KM12 colon = test system: KM12 colon
KM20L2 colon = test system: KM20L2 colon
LOX IMVI melanoma = test system: LOX IMVI melanoma
LXFL 529 NSCLC = test system: LXFL 529 NSCLC
M14 melanoma = test system: M14 melanoma
M19-MEL melanoma = test system: M19-MEL melanoma
MALME-3M melanoma = test system: MALME-3M melanoma
MOLT-4 leukemia = test system: MOLT-4 leukemia
NCI-H226 lung = test system: NCI-H226 lung
NCI-H23 lung = test system: NCI-H23 lung
NCI-H460 lung = test system: NCI-H460 lung
NCI-H522 lung = test system: NCI-H522 lung
OVCAR-3 ovarian = test system: OVCAR-3 ovarian
OVCAR-4 ovarian = test system: OVCAR-4 ovarian
OVCAR-5 ovarian = test system: OVCAR-5 ovarian
OVCAR-8 ovarian = test system: OVCAR-8 ovarian
RPMI-8226 leukemia = test system: RPMI-8226 leukemia
RXF 393 renal = test system: RXF 393 renal
SF-268 CNS = test system: SF-268 CNS
SF-295 CNS = test system: SF-295 CNS
SF-539 CNS = test system: SF-539 CNS
SK-MEL-2 melanoma = test system: SK-MEL-2 melanoma
SK-MEL-28 melanoma = test system: SK-MEL-28 melanoma
SK-MEL-5 melanoma = test system: SK-MEL-5 melanoma
SK-OV-3 ovarian = test system: SK-OV-3 ovarian
SN12C renal = test system: SN12C renal
SNB-19 CNS = test system: SNB-19 CNS
SNB-75 CNS = test system: SNB-75 CNS
SNB-78 CNS = test system: SNB-78 CNS
SW-620 colon = test system: SW-620 colon
TK-10 renal = test system: TK-10 renal
U251 CNS = test system: U251 CNS
UACC-257 melanoma = test system: UACC-257 melanoma
UACC-62 melanoma = test system: UACC-62 melanoma
UO-31 renal = test system: UO-31 renal
XF 498 CNS = test system: XF 498 CNS

Clc1ccc(SCCCCCCCCCCSc2ccc(Cl)cc2)cc1
TGI (786-0 renal): > 70.4 µM | TGI (A498 renal): > 100 µM | TGI (A549 NSCLC): > 100 µM | TGI (ACHN renal): > 73.5 µM | TGI (CAKI-1 renal): > 100 µM | TGI (CCRF-CEM leukemia): > 100 µM | TGI (COLO 205 colon): > 100 µM | TGI (DLD-1 colon): > 100 µM | TGI (DMS 114 small cell lung): > 100 µM | TGI (DMS 273 small cell lung): > 100 µM | TGI (EKVX NSCLC): > 96.6 µM | TGI (HCC-2998 colon): > 64.6 µM | TGI (HCT-116 colon): > 100 µM | TGI (HCT-15 colon): > 75.9 µM | TGI (HL-60(TB) leukemia): > 100 µM | TGI (HOP-18 NSCLC): > 100 µM | TGI (HOP-62 NSCLC): > 100 µM | TGI (HOP-92 NSCLC): > 100 µM | TGI (HT29 colon): > 100 µM | TGI (IGROV1 ovarian): > 100 µM | TGI (K-562 leukemia): > 100 µM | TGI (KM12 colon): > 70.4 µM | TGI (KM20L2 colon): > 87 µM | TGI (LOX IMVI melanoma): > 100 µM | TGI (LXFL 529 NSCLC): > 100 µM | TGI (M14 melanoma): > 100 µM | TGI (M19-MEL melanoma): > 100 µM | TGI (MALME-3M melanoma): > 70.3 µM | TGI (MOLT-4 leukemia): > 100 µM | TGI (NCI-H226 lung): > 100 µM | TGI (NCI-H23 lung): > 100 µM | TGI (NCI-H460 lung): > 78.7 µM | TGI (NCI-H522 lung): > 100 µM | TGI (OVCAR-3 ovarian): > 70.7 µM | TGI (OVCAR-4 ovarian): > 100 µM | TGI (OVCAR-5 ovarian): > 78.3 µM | TGI (OVCAR-8 ovarian): > 80.1 µM | TGI (RPMI-8226 leukemia): > 100 µM | TGI (RXF 393 renal): > 100 µM | TGI (SF-268 CNS): > 100 µM | TGI (SF-295 CNS): > 71.4 µM | TGI (SF-539 CNS): > 100 µM | TGI (SK-MEL-2 melanoma): > 70.4 µM | TGI (SK-MEL-28 melanoma): > 100 µM | TGI (SK-MEL-5 melanoma): > 69.3 µM | TGI (SK-OV-3 ovarian): > 100 µM | TGI (SN12C renal): > 100 µM | TGI (SNB-19 CNS): > 100 µM | TGI (SNB-75 CNS): > 100 µM | TGI (SNB-78 CNS): > 100 µM | TGI (SW-620 colon): 70.9 µM | TGI (TK-10 renal): > 77.9 µM | TGI (U251 CNS): > 69.8 µM | TGI (UACC-257 melanoma): > 76.1 µM | TGI (UACC-62 melanoma): > 100 µM | TGI (UO-31 renal): > 100 µM | TGI (XF 498 CNS): > 100 µM

O=C1CCCC1NC(=O)C(F)(F)F (centres undefined)
TGI (786-0 renal): > 100 µM | TGI (A498 renal): > 100 µM | TGI (A549 NSCLC): > 100 µM | TGI (ACHN renal): > 100 µM | TGI (CAKI-1 renal): > 100 µM | TGI (CCRF-CEM leukemia): > 100 µM | TGI (DLD-1 colon): > 100 µM | TGI (DMS 273 small cell lung): > 100 µM | TGI (EKVX NSCLC): > 100 µM | TGI (HCT-116 colon): > 100 µM | TGI (HL-60(TB) leukemia): > 100 µM | TGI (HOP-62 NSCLC): > 100 µM | TGI (HOP-92 NSCLC): > 100 µM | TGI (HT29 colon): > 100 µM | TGI (IGROV1 ovarian): > 100 µM | TGI (K-562 leukemia): > 100 µM | TGI (KM12 colon): > 100 µM | TGI (LXFL 529 NSCLC): > 100 µM | TGI (M14 melanoma): > 100 µM | TGI (M19-MEL melanoma): > 100 µM | TGI (MALME-3M melanoma): > 100 µM | TGI (MOLT-4 leukemia): > 100 µM | TGI (NCI-H226 lung): > 100 µM | TGI (NCI-H23 lung): > 100 µM | TGI (NCI-H460 lung): > 100 µM | TGI (NCI-H522 lung): > 100 µM | TGI (OVCAR-3 ovarian): > 100 µM | TGI (OVCAR-4 ovarian): > 100 µM | TGI (OVCAR-5 ovarian): > 100 µM | TGI (OVCAR-8 ovarian): > 100 µM | TGI (RXF 393 renal): > 100 µM | TGI (SF-268 CNS): > 100 µM | TGI (SF-295 CNS): > 100 µM | TGI (SF-539 CNS): > 100 µM | TGI (SK-MEL-2 melanoma): > 100 µM | TGI (SK-MEL-28 melanoma): > 100 µM | TGI (SK-MEL-5 melanoma): > 100 µM | TGI (SK-OV-3 ovarian): > 100 µM | TGI (SN12C renal): > 100 µM | TGI (SNB-19 CNS): > 100 µM | TGI (SNB-75 CNS): > 100 µM | TGI (SNB-78 CNS): > 100 µM | TGI (SW-620 colon): > 100 µM | TGI (TK-10 renal): > 100 µM | TGI (U251 CNS): > 100 µM | TGI (UACC-257 melanoma): > 100 µM | TGI (UACC-62 melanoma): > 100 µM | TGI (UO-31 renal): > 100 µM | TGI (XF 498 CNS): > 100 µM

CC1=NN(C(=O)c2ccc(Cl)cc2)C(=O)/C1=C/c1ccc(O)cc1
TGI (786-0 renal): > 100 µM | TGI (A498 renal): > 100 µM | TGI (A549 NSCLC): > 100 µM | TGI (ACHN renal): > 100 µM | TGI (CAKI-1 renal): > 100 µM | TGI (CCRF-CEM leukemia): > 100 µM | TGI (COLO 205 colon): > 100 µM | TGI (DLD-1 colon): > 100 µM | TGI (DMS 114 small cell lung): > 100 µM | TGI (EKVX NSCLC): > 100 µM | TGI (HCC-2998 colon): > 100 µM | TGI (HCT-116 colon): > 100 µM | TGI (HCT-15 colon): > 100 µM | TGI (HL-60(TB) leukemia): > 100 µM | TGI (HOP-62 NSCLC): > 100 µM | TGI (HOP-92 NSCLC): > 100 µM | TGI (HT29 colon): > 100 µM | TGI (IGROV1 ovarian): > 100 µM | TGI (K-562 leukemia): > 100 µM | TGI (KM12 colon): > 100 µM | TGI (KM20L2 colon): > 100 µM | TGI (LOX IMVI melanoma): > 100 µM | TGI (LXFL 529 NSCLC): > 100 µM | TGI (M14 melanoma): > 100 µM | TGI (M19-MEL melanoma): > 100 µM | TGI (MALME-3M melanoma): > 100 µM | TGI (MOLT-4 leukemia): > 100 µM | TGI (NCI-H226 lung): > 100 µM | TGI (NCI-H23 lung): > 100 µM | TGI (NCI-H460 lung): > 100 µM | TGI (NCI-H522 lung): > 100 µM | TGI (OVCAR-3 ovarian): > 100 µM | TGI (OVCAR-4 ovarian): > 100 µM | TGI (OVCAR-5 ovarian): > 100 µM | TGI (OVCAR-8 ovarian): > 100 µM | TGI (RPMI-8226 leukemia): > 100 µM | TGI (RXF 393 renal): > 100 µM | TGI (SF-268 CNS): > 100 µM | TGI (SF-295 CNS): > 100 µM | TGI (SF-539 CNS): > 100 µM | TGI (SK-MEL-2 melanoma): > 100 µM | TGI (SK-MEL-28 melanoma): > 100 µM | TGI (SK-MEL-5 melanoma): > 100 µM | TGI (SK-OV-3 ovarian): > 100 µM | TGI (SN12C renal): > 100 µM | TGI (SNB-19 CNS): > 100 µM | TGI (SW-620 colon): > 100 µM | TGI (TK-10 renal): > 100 µM | TGI (U251 CNS): > 100 µM | TGI (UACC-257 melanoma): > 100 µM | TGI (UACC-62 melanoma): > 100 µM | TGI (UO-31 renal): > 100 µM | TGI (XF 498 CNS): > 100 µM
